This note sets out measurements from patent US20150133512A1, “N-ARYLTRIAZOLE COMPOUNDS AS LPAR ANTAGONISTS” (Hoffmann-La Roche Inc,, priority 2012, published 2015).

Test [1] deals with human recombinant LPA1 Lysophospholipid receptor (Homo sapiens, UniProt Q92633). Put plainly: Calcium flux assay using FLIPR, LPA1 antagonist activity. It is filed as cell-based. The following applies: for IC50: ChemiScreen Calcium-optimized stable cell line, antagonist mode, inhibition of agonist-induced calcium flux. The protocol: (§1) Calcium Flux Assay Using Fluorometric Imaging Plate Reader (FLIPR)
human recombinant LPA1 Lysophospholipid receptor, sequence (Q92633 whole entry): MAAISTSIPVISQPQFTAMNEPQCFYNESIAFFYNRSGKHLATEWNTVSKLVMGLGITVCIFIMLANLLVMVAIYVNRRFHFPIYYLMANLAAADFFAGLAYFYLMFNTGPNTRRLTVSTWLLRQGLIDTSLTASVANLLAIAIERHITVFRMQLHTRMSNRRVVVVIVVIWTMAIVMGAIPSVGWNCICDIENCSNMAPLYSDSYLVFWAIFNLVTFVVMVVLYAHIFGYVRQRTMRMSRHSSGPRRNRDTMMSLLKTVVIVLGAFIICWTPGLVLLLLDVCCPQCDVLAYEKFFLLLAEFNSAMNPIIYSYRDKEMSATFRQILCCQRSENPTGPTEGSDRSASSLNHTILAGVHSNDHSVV
Cell Culture Conditions: The ChemiScreen Calcium-optimized stable cell line containing the human recombinant LPA1 Lysophospholipid receptor was purchased from Chemicon International, Inc./Millipore. The cells were cultured in DMEM-high glucose supplemented with 10% fetal bovine serum, 2 mM glutamine, 100 U/mL penicillin/100 μg/mL streptomycin, 1× non-essential amino acids, 10 mM HEPES and 0.25 mg/mL Geneticin. Cells were harvested with trypsin-EDTA and counted using ViaCount reagent. The cell suspension volume was adjusted to 2.0×10^5 cells/mL with complete growth media. Aliquots of 50 μL were dispensed into 384 well black/clear tissue culture treated plates (BD) and the microplates were placed in a 37° C. incubator overnight. The following day plates were used in the assay.
(§2) Dye Loading and Assay: Loading Buffer (FLIPR Calcium-4, Molecular Devices) was prepared by dissolving the contents of one bottle into 100 mL Hank's Balanced Salt Solution containing 20 mM HEPES and 2.5 mM probenecid. Plates were loaded onto Biotek plate washer and growth media was removed and replaced with 20 μL of Hank's Balanced Salt Solution containing 20 mM HEPES and 2.5 mM probenecid, followed by 25 μL of Loading Buffer. The plates were then incubated for 30 minutes at 37° C.
During the incubation, test compounds were prepared by adding 90 μL of HBSS/20 mM HEPES/0.1% BSA buffer to 2 μL of serially diluted compounds. To prepare serial dilutions, 10 mM stocks of compounds were prepared in 100% DMSO.
After incubation, both the cell and “assay” plates were brought to the FLIPR and 20 μL of the diluted compounds were transferred to the cell plates by the FLIPR. Compound addition was monitored by FLIPR to detect any agonist activity of the compounds. Plates were then incubated for 30 minutes at room temperature protected from light. […] During the assay, fluorescence readings were taken simultaneously from all 384 wells of the cell plate every 1.5 seconds. Five readings were taken to establish a stable baseline, then 20 μL of sample was rapidly (30 μL/sec) and simultaneously added to each well of the cell plate. The fluorescence was continuously monitored before, during and after sample addition for a total elapsed time of 100 seconds. Responses (increase in peak fluorescence) in each well following agonist addition was determined. The initial fluorescence reading from each well, prior to ligand stimulation, was used as zero baseline value for the data from that well. The responses were expressed as % inhibition of the buffer control.
In general terms: A change in cytosolic calcium serves as a functional read-out for many receptors and channels.

A further test deals with T1, LPA3 (Homo sapiens, UniProt Q9UBY5).
T1 sequence (Q9UBY5 1-353): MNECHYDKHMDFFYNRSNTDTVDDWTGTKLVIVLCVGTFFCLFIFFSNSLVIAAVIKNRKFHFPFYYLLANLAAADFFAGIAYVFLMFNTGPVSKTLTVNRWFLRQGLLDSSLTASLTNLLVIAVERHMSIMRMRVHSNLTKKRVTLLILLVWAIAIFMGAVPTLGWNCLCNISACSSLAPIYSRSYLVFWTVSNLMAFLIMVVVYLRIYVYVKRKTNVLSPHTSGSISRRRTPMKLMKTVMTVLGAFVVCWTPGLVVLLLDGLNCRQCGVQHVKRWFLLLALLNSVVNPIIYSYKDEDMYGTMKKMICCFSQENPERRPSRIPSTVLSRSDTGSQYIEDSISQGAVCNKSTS
Put plainly: Calcium flux assay using FLIPR, LPA3 antagonist activity. It is filed as cell-based. The conditions noted are these: for IC50: antagonist activity. How it is done:
as §1, §2
During the incubation, test compounds were prepared by adding 90 μL of HBSS/20 mM HEPES/0.1% BSA buffer to 2 μL of serially diluted compounds. To prepare serial dilutions, 10 mM stocks of compounds were prepared in 100% DMSO. The compound dilution plate was set up as follows: well #1 received 29 μL of stock compound and 31 μL DMSO; wells 2-10 received 40 μL of DMSO; mixed and transferred 20 μL of solution from well #1 into well #2; continued with 1:3 serial dilutions out 10 steps; transferred 2 μL of diluted compound into duplicate wells of 384 well “assay plate” and then added the 90 μL of buffer.
After incubation, both the cell and “assay” plates were brought to the FLIPR and 20 μL of the diluted compounds were transferred to the cell plates by the FLIPR. Compound addition was monitored by FLIPR to detect any agonist activity of the compounds. Plates were then incubated for 30 minutes at room temperature protected from light. After the incubation, plates were returned to the FLIPR and 20 μL of 4.5× concentrated agonist was added to the cell plates. During the assay, fluorescence readings were taken simultaneously from all 384 wells of the cell plate every 1.5 seconds. Five readings were taken to establish a stable baseline, then 20 μL of sample was rapidly (30 μL/sec) and simultaneously added to each well of the cell plate. The fluorescence was continuously monitored before, during and after sample addition for a total elapsed time of 100 seconds. Responses (increase in peak fluorescence) in each well following agonist addition was determined. The initial fluorescence reading from each well, prior to ligand stimulation, was used as zero baseline value for the data from that well. The responses were expressed as % inhibition of the buffer control.

The structures appear in SMILES notation.

The IC50 is the point on the concentration scale where inhibition reaches its midpoint. With `Cc1nnn(-c2ccc(-c3ccc(C4(C(=O)O)CCC4)cc3)cc2)c1NC(=O)O[C@H](C)c1ccccc1` (single isomer, unassigned) [Example 32], the IC50 is 0.174 µM in test [1] and over 30 µM on LPA3.
The corresponding values for `Cc1nnn(-c2ccc(-c3ccc(C4(C(=O)O)CC4)cc3)cc2)c1NC(=O)O[C@H](C)c1ccccc1` [Example 1, 1-{4′-[4-Methyl-5-((R)-1-phenyl-ethoxycarbonylamino)-[1,2,3]triazol-1-yl]-biphenyl-4-yl}-cyclopropanecarboxylic acid] are 0.025 µM and over 30 µM.
In general, inhibition refers to the change of the read-out against control, counted positive when it falls. As to `Cc1nnn(-c2ccc(-c3ccc(CC(=O)O)cc3)cc2)c1NC(=O)O[C@H](C)c1ccccc1` [Example 2, {4′-[4-Methyl-5-((R)-1-phenyl-ethoxycarbonylamino)-[1,2,3]triazol-1-yl]-biphenyl-4-yl}-acetic acid], in test [1] (@ 30 μM), the inhibition at 30 µM is 40%. Also, the IC50 (in test [1]; at LPA3) was over 30 µM throughout.
Take `Cc1c(NC(=O)O[C@H](C)c2ccccc2)nnn1-c1ccc(-c2ccc(C3(C(=O)O)CC3)cc2)cc1` [Example 3, 1-{4′-[5-Methyl-4-((R)-1-phenyl-ethoxycarbonylamino)-[1,2,3]triazol-1-yl]-biphenyl-4-yl}-cyclopropanecarboxylic acid]: the IC50 (in test [1]; on LPA3) was over 30 µM each time.
Regarding `Cc1c(NC(=O)O[C@H](C)c2ccccc2)nnn1-c1ccc(-c2ccc(CC(=O)O)cc2)cc1` [Example 4, {4′-[5-Methyl-4-((R)-1-phenyl-ethoxycarbonylamino)-[1,2,3]triazol-1-yl]-biphenyl-4-yl}-acetic acid], the IC50 (in test [1]; at LPA3) was over 30 µM throughout.
Consider `Cc1nnn(-c2ccc(-c3ccc(C4(C(=O)O)CC4)cc3)cc2)c1NC(=O)O[C@H](C)c1ccccc1F` [Example 5, 1-(4′-{5-[(R)-1-(2-Fluoro-phenyl)-ethoxycarbonylamino]-4-methyl-[1,2,3]triazol-1-yl}-biphenyl-4-yl)-cyclopropanecarboxylic acid], for which the IC50 at LPA3 was over 30 µM.
As to `Cc1nnn(-c2ccc(-c3ccc(C4(C(=O)O)CC4)cc3)cc2)c1NC(=O)O[C@H](C)c1ccccc1C(F)(F)F` [Example 6, 1-(4′-{4-Methyl-5-[(R)-1-(2-trifluoromethyl-phenyl)-ethoxycarbonylamino]-[1,2,3]triazol-1-yl}-biphenyl-4-yl)-cyclopropanecarboxylic acid], the IC50 in test [1] stood at 0.112 µM. Further, on LPA3, the inhibition at 30 µM is 55.2% and the IC50 came out at 25.9 µM.
Consider `Cc1nnn(-c2ccc(-c3ccc(C4(C(=O)O)CC4)cc3)cc2)c1NC(=O)O[C@H](C)c1cccc(C(F)(F)F)c1` [Example 7, 1-(4′-{4-Methyl-5-[(R)-1-(3-trifluoromethyl-phenyl)-ethoxycarbonylamino]-[1,2,3]triazol-1-yl}-biphenyl-4-yl)-cyclopropanecarboxylic acid], for which the IC50 in test [1] turned out to be 0.174 µM; at LPA3 it was 6.86 µM.
As to `Cc1nnn(-c2ccc(-c3ccc(C4(C(=O)O)CC4)cc3)cc2)c1NC(=O)O[C@@H]1CCc2ccccc21` [Example 8, 1-{4′-[5-((R)-Indan-1-yloxycarbonylamino)-4-methyl-[1,2,3]triazol-1-yl]-biphenyl-4-yl}-cyclopropanecarboxylic acid], the IC50 (in test [1]; at LPA3) was over 30 µM in each case.
For `Cc1nnn(-c2ccc(-c3ccc(C4(C(=O)O)CC4)cc3)cc2)c1NC(=O)O[C@H](C)C(C)C` [Example 9, 1-{4′-[5-((R)-1,2-Dimethyl-propoxycarbonylamino)-4-methyl-[1,2,3]triazol-1-yl]-biphenyl-4-yl}-cyclopropanecarboxylic acid], the IC50 in test [1] is 0.217 µM; at LPA3, over 30 µM.
Consider `CC[C@@H](C)OC(=O)Nc1c(C)nnn1-c1ccc(-c2ccc(C3(C(=O)O)CC3)cc2)cc1` [Example 10, 1-{4′-[5-((R)-sec-Butoxycarbonylamino)-4-methyl-[1,2,3]triazol-1-yl]-biphenyl-4-yl}-cyclopropanecarboxylic acid], for which the IC50 is 0.398 µM in test [1] and over 30 µM at LPA3.
As for `Cc1nnn(-c2ccc(-c3ccc(C4(C(=O)O)CC4)cc3)cc2)c1NC(=O)OC(C)C` [Example 11, 1-[4′-(5-iso-Propoxycarbonylamino-4-methyl-[1,2,3]triazol-1-yl)-biphenyl-4-yl]-cyclopropanecarboxylic acid], the IC50 (in test [1]; on LPA3) was over 30 µM in each case.
`Cc1nnn(-c2ccc(-c3ccc(C4(C(=O)O)CC4)cc3)cc2)c1NC(=O)OC(C)C1CC1` (stereo not drawn) [Example 12, 1-{4′-[5-(1-Cyclopropyl-ethoxycarbonylamino)-4-methyl-[1,2,3]triazol-1-yl]-biphenyl-4-yl}-cyclopropanecarboxylic acid]: the IC50 in test [1] was 0.134 µM; on LPA3, over 30 µM.
Taken in the same sequence, the figures for `Cc1nnn(-c2ccc(-c3ccc(C4(C(=O)O)CC4)cc3)cc2)c1NC(=O)OC(C)C1CCC1` (stereo not drawn) [Example 13, 1-{4′-[5-(1-Cyclobutyl-ethoxycarbonylamino)-4-methyl-[1,2,3]triazol-1-yl]-biphenyl-4-yl}-cyclopropanecarboxylic acid] were 0.161 µM and over 30 µM.
Taken in the same sequence, the figures for `Cc1nnn(-c2ccc(-c3ccc(C4(C(=O)O)CC4)cc3)cc2)c1NC(=O)OC(C)(C)C` [Example 14, 1-[4′-(5-tert-Butoxycarbonylamino-4-methyl-[1,2,3]triazol-1-yl)-biphenyl-4-yl]-cyclopropanecarboxylic acid] were 0.985 µM and over 30 µM.
For the compound `Cc1nnn(-c2ccc(-c3ccc(C4(C(=O)O)CC4)c(F)c3)cc2)c1NC(=O)O[C@H](C)c1ccccc1` [Example 15, 1-{3-Fluoro-4′-[4-methyl-5-((R)-1-phenyl-ethoxycarbonylamino)-[1,2,3]triazol-1-yl]-biphenyl-4-yl}-cyclopropanecarboxylic acid], in test [1], the IC50 amounted to 0.022 µM. Moreover, on LPA3, the inhibition at 30 µM amounted to 46.3%.
As for `COc1cc(-c2ccc(C3(C(=O)O)CC3)cc2)ccc1-n1nnc(C)c1NC(=O)O[C@H](C)c1ccccc1` [Example 16, 1-{3′-Methoxy-4′-[4-methyl-5-((R)-1-phenyl-ethoxycarbonylamino)-[1,2,3]triazol-1-yl]-biphenyl-4-yl}-cyclopropanecarboxylic acid], the IC50 is 0.245 µM in test [1] and over 30 µM at LPA3.
In the case of `Cc1nnn(-c2ccc(-c3ccc(C4(c5nnn[nH]5)CC4)cc3)cc2)c1NC(=O)O[C@H](C)c1ccccc1` [Example 29, (R)-1-Phenyl-ethyl-1-(4′-(1-(1H-tetrazol-5-yl)cyclopropyl)biphenyl-4-yl)-4-methyl-1H-1,2,3-triazol-5-ylcarbamate], the IC50 on LPA3 is over 30 µM.
